The test system of data set [1] is VX-950-resistant variants of HCV. Nature of the data set: IC50 shift of VX-950-resistant variants.
Data set [2] relates to genotype 1 HCV. Nature of the data set: PROVE 1 Phase 2b clinical trial: viral response (HCV RNA, Roche COBAS TaqMan assay). Format: in vivo, human. The text has this: Twenty percent of those treated with telaprevir were either Hispanic (10%) or African American (10%). In the control arm, 8% of patients were Hispanic and 12% were African American. […] On average, patients were 49 years old (21-63 years range) with a mean weight of 82.1 kg (46-136 kg range).
The Roche COBAS TaqMan® assay was used to measure HCV RNA (LOD 10 IU/mL). For viral kinetic modeling, values reported as <10 IU/mL were replaced with 5 IU/mL.
Severity of fibrosis was defined by histologic assessment from each center's local pathologist.
The Roche COBAS TaqMan® assay was used to measure HCV RNA (limit of detection 10 IU/mL). For viral kinetic modeling, values reported as <10 IU/mL were replaced with 5 IU/mL.
Background: Real-time PCR tracks product formation cycle by cycle.

In data set [3] the test system is replicon. Description: Predicted human liver exposure relative to replicon assay IC50/IC90. Particulars: dose range studied.
Data set [4] deals with HCV genotype 1. Nature of the data set: Phase 1b trial (Study VX04-950-101). Particulars: subjects infected with HCV genotype 1.
For data set [5] the following is noted: in vivo.
Details of data set [6]: species or system human. Particulars: in vivo.

The text below walks through data of patent US20120039850A1, “HCV Combination Therapies Comprising Pegylated Interferon, Ribavirin and Telaprevir” (Janssen Pharmaceutica NV, priority 2009, published 2012).

Where two headings read alike, the source gives them in different places.

As to `CCC[C@H](NC(=O)[C@@H]1[C@H]2CCC[C@H]2CN1C(=O)[C@@H](NC(=O)[C@@H](NC(=O)c1cnccn1)C1CCCCC1)C(C)(C)C)C(=O)C(=O)NC1CC1` [VX-950], the “fold increase in IC50” value in data set [1] is 7-20 fold. For the same molecule, the “% with SVR” value is given as 62% in data set [2], 44% in data set [2] (AA (African American)) and 65% in data set [2] (L (Latino)). The “predicted average liver concentration, fold of the replicon assay IC90” value in data set [3] was “up to 57 fold”. Further, the antiviral activity entry in data set [4] is reported as “substantial antiviral activity”. Besides, the oral bioavailability result in data set [5] is reported as “orally bioavailable”. Moreover, the “pharmacokinetics among the different racial/ethnic groups” value in data set [6] is on record as “No differences”.
